# Reference: US8399689B2, “Chrysophaentin antimicrobial compounds that inhibit FtsZ protein” (The United States of America, as represented by the …, priority 2010, dated 2013)
# “Also recorded” adds a separate entry of the source.
# Tests used:
# [1] = tested on: vancomycin-resistant E. Faecium (VRE, ATCC 700221); experiment: Agar disk diffusion assay, VREF; assay type: cell-based, Enterococcus faecium
# Description: (§1) Compounds 1-8 were tested for antimicrobial activity against Staphylococcus aureus (SA, ATCC 25923), methicillin-resistant S. aureus (MRSA, ATCC BAA-41), multidrug-resistant S. aureus (MDRSA, ATCC BAA-44), Enterococcus faecium (EF, ATCC 49032), vancomycin-resistant E. Faecium (VRE, ATCC 700221), and Bacillus subtilis (ATCC 49343) using a modified disk diffusion assay and microbroth liquid dilution assays. For disk diffusion assays, agar plates seeded with suspensions of bacteria were prepared by adding 500 μL of a 24 h culture of bacteria to 100 mL of autoclaved Mueller Hinton II agar and cooled to 55° C. Seeded liquid agar (10 mL) was transferred immediately to square Petri dishes and allowed to cool for 1 h. Control drugs used for each microorganism included kanamycin (50 μg) for S. aureus, and nitrofurantoin (25 μg) for MRSA. Following incubation at 37° C. for 18 h, zones of inhibition were measured. MICso values for compounds 1 and 4-8 were determined using a microbroth dilution assay outlined in the Clinical and Laboratory Standards Institute methods for susceptibility tests for bacteria that grow aerobically. Briefly, single bacterial colonies were used to inoculate 4 mL of Trypticase Soy broth (BD) for overnight growth and inoculum for each were diluted to 5×10^5 CFU/mL using the 0.5 McFarland standard. In a 96 well plate (Costar, round bottom), control antibiotics (oxacillin for SA and MRSA, vancomycin for EF and VRE, chloramphenicol for B. subtilis) or natural product inhibitors were added to Muller Hinton II broth (for S. aureus, MRSA, and B. subtilis) or 10% brain heart infusion broth (for E. faecium and VRE) in the first column of the well plates, and serially diluted across the plate, reserving wells for a positive growth control (no treatment). 10 μL of diluted bacteria were added to all wells with the exception of those kept for broth blanks (MHII or brain heart infusion broth only). Plates were incubated at 37° C. overnight and read at absorbance 600 nm on a Molecular Devices plate reader. Growth curves were plotted and ICso values obtained using Kalidagraph software.
# [2] = target: T1, recombinant E. coli FtsZ (Escherichia coli, UniProt P0A9A6); experiment: FtsZ polymerization assay by transmission electron microscopy; settings: 50 μM compound, 6 μM FtsZ, GTP 1 mM
# T1 sequence (P0A9A6 whole entry): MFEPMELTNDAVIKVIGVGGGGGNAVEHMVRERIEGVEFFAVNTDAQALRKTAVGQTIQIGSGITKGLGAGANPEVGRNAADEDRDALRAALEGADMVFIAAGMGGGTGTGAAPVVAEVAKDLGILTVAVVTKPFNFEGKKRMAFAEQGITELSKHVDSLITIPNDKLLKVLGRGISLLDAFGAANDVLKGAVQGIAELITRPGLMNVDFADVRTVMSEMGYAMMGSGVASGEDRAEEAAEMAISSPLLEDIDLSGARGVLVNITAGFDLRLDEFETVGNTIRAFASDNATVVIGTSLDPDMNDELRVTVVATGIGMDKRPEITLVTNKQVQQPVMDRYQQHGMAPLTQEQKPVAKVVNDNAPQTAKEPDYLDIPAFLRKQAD
# Description: Protofilament formation of E. coli FtsZ was assessed by polymerization assays. […] Following an additional 5 minutes incubation period at room temperature, aliquots (5 μL) were adsorbed onto carbon films on lacey carbon supports on 400-mesh copper grids, rinsed with H2O, and exposed to 3% uranyl acetate for 5 minutes for negative staining. Images were acquired with an FEI Morgani transmission electron microscope, operating at 80 kV, and equipped with an AMT Advantage camera at 44,000× magnification.
# [3] = tested on: methicillin-resistant S. aureus (MRSA, ATCC BAA-41); experiment: Microbroth dilution assay, MRSA; assay type: cell-based, Staphylococcus aureus; settings: microbroth dilution, concentration at which growth is reduced by 50%
# Description: as §1
# [4] = tested on: Bacillus subtilis (ATCC 49343); experiment: Microbroth dilution assay, B. subtilis; assay type: cell-based; settings: ATCC49343
# Description: (§2) Compounds 1-8 were tested for antimicrobial activity against Staphylococcus aureus (SA, ATCC 25923), methicillin-resistant S. aureus (MRSA, ATCC BAA-41), multidrug-resistant S. aureus (MDRSA, ATCC BAA-44), Enterococcus faecium (EF, ATCC 49032), vancomycin-resistant E. Faecium (VRE, ATCC 700221), and Bacillus subtilis (ATCC 49343) using a modified disk diffusion assay and microbroth liquid dilution assays. For disk diffusion assays, agar plates seeded with suspensions of bacteria were prepared by adding 500 μL of a 24 h culture of bacteria to 100 mL of autoclaved Mueller Hinton II agar and cooled to 55° C. Seeded liquid agar (10 mL) was transferred immediately to square Petri dishes and allowed to cool for 1 h. Control drugs used for each microorganism included kanamycin (50 μg) for S. aureus, and nitrofurantoin (25 μg) for MRSA. Following incubation at 37° C. for 18 h, zones of inhibition were measured. MICso values for compounds 1 and 4-8 were determined using a microbroth dilution assay outlined in the Clinical and Laboratory Standards Institute methods for susceptibility tests for bacteria that grow aerobically. […] Plates were incubated at 37° C. overnight and read at absorbance 600 nm on a Molecular Devices plate reader. […]
# [5] = tested on: control mammalian cell line BSC-1; experiment: Cytotoxicity, BSC-1 control cells; assay type: cell-based; settings: no cytotoxicity at concentrations as high as
# [6] = tested on: Staphylococcus aureus (SA, ATCC 25923); experiment: Microbroth dilution assay, S. aureus; assay type: cell-based; settings: concentration at which growth is reduced by 50%; for MIC50 (μg/mL) S. aureus: microbroth dilution
# Description: as §1
# [7] = tested on: Enterococcus faecium (EF, ATCC 49032); experiment: Microbroth dilution assay, E. faecium; assay type: cell-based; settings: concentration at which growth is reduced by 50%
# Description: as §1
# [8] = target: GTP binding site of FtsZ (Escherichia coli, UniProt P0A9A6); experiment: Competition STD NMR with GTPγS; parameters: species or system E. coli; settings: for mode of binding relative to GTP/GTPγS: GTPγS titration 0.5-3.0 equivalents
# Sequence of GTP binding site of FtsZ (P0A9A6 whole entry, the tested form may be a part): as the sequence (P0A9A6 whole entry) above
# [9] = tested on: Enterococcus faecium (EF, ATCC 49032); experiment: Agar disk diffusion assay, E. faecium; assay type: cell-based
# Description: as §1
# [10] = tested on: vancomycin-resistant E. Faecium (VRE, ATCC 700221); experiment: Microbroth dilution assay, VREF; assay type: cell-based, Enterococcus faecium; settings: microbroth dilution, concentration at which growth is reduced by 50%
# Description: as §1
# [11] = tested on: Staphylococcus aureus (SA, ATCC 25923); experiment: Agar disk diffusion assay, S. aureus; assay type: cell-based
# Description: as §1
# [12] = tested on: multidrug-resistant S. aureus (MDRSA, ATCC BAA-44); experiment: Microbroth dilution assay, MDRSA; assay type: cell-based; settings: Staphylococcus aureus, ATCCBAA44
# Description: as §2
# [13] = tested on: methicillin-resistant S. aureus (MRSA, ATCC BAA-41); experiment: Agar disk diffusion assay, MRSA; assay type: cell-based, Staphylococcus aureus
# Description: as §1
# [14] = tested on: murine leukemia cell line P388; experiment: Cytotoxicity, P388; assay type: cell-based; settings: did not inhibit growth at concentrations as high as
# [15] = tested on: human colon tumor cell line HCT-116; experiment: Cytotoxicity, HCT-116; assay type: cell-based; settings: did not inhibit growth at concentrations as high as
# [16] = target: T1, recombinant E. coli FtsZ; experiment: FtsZ GTPase colorimetric (malachite green) assay; assay type: biochemical; settings: 2 μM FtsZ, 0.25 mM GTP, pH 6.5
# Description: Solutions were incubated at room temperature for 5 min, followed by addition of 0.25 mM GTP. At the end of a 20-min incubation period, enzyme activity was quenched by addition of 50 μL Malachite Green solution and the wells read at A^625 on an absorbance plate reader.
# [17] = tested on: tubulin; experiment: Tubulin polymerization assay; assay type: biochemical; settings: for effect on tubulin polymerization: at 150 μM, 15 times its IC50 for FtsZ
# [18] = Lowest concentrations leading to 8-10 mm zones of inhibition
structure (smiles),measurement,setting,value
"Oc1cc(O)c2c(c1)C/C(Cl)=C\Cc1cc(c(Cl)cc1O)Oc1c(O)cc(cc1O)C/C(Cl)=C\Cc1cc(c(Cl)cc1O)O2 [Compound 1, chrysophaentin 1]",zone of inhibition at 2 µg/disc,"[1]; Enterococcus faecium, at 2 μg/disk",10 mm
same,Agar disk diffusion (μg/disk) VREF,[1]; [18],2 μg/disk
same,GTP-dependent FtsZ polymerization and protofilament formation (TEM),[2],polymerization and protofilament formation were inhibited; also recorded: fully inhibited polymerization and protofilament formation
same,MIC50,"[3]; Staphylococcus aureus, read-out: MIC50 (μg/mL) MRSA",1.5 ± 0.7 µg/mL
same,MIC50 (μg/mL) MRSA,[3],1.5 ± 0.7 µg/mL
same,MIC50 (μg/mL) MRSA,[3]; listed as Chrysophaentin 1,1.8 ± 0.6 µg/mL
same,MIC50 (μg/mL) MRSA,[3]; listed as chrysophaentin 1,1.5 ± 0.7 µg/mL
same,MIC50,[4],7.3 ± 3.7 µg/mL
same,"concentration without cytotoxicity, BSC-1",[5],> 100 µg/mL
same,MIC50,"[6]; Staphylococcus aureus, ATCC25923, microbroth dilution, read-out: MIC50 (μg/mL) S. aureus",1.8 ± 0.6 µg/mL
same,MIC50 (μg/mL) S. aureus,[6],1.8 ± 0.6 µg/mL
same,MIC50 (μg/mL) S. aureus,[6]; listed as chrysophaentin 1,1.8 ± 0.6 µg/mL
same,MIC50,"[7]; Enterococcus faecium, ATCC49032, microbroth dilution, read-out: MIC50 (μg/mL) E. faecium",3.8 ± 1.9 µg/mL
same,MIC50 (μg/mL) E. faecium,[7]; microbroth dilution,3.5 ± 1.8 µg/mL
same,decrease in STD NMR signal intensity of compound on addition of GTPγS,"[8]; 0.5 equivalents GTPγS (625 μM), 1.25 mM compound, 12.5 μM FtsZ",~50%
same,mode of binding relative to GTP/GTPγS,[8]; listed as chrysophaentin 1,in a competitive manner; also recorded: bind competitively
same,mode of binding relative to GTP/GTPγS,[8]; listed as compound 1,competitive inhibitor of GTP binding to FtsZ
same,zone of inhibition at 2 µg/disc,"[9]; Enterococcus faecium, ATCC49032, at 2 μg/disk",10 mm
same,Agar disk diffusion (μg/disk) E. faecium,[9]; [18],2 μg/disk
same,MIC50,"[10]; Enterococcus faecium, read-out: MIC50 (μg/mL) VREF",2.9 ± 0.8 µg/mL
same,MIC50 (μg/mL) VREF,[10],2.8 ± 0.8 µg/mL
same,MIC50 (μg/mL) VREF,[10]; listed as Chrysophaentin 1,2.8 ± 0.8 µg/mL
same,Agar disk diffusion (μg/disk) S. aureus,[11]; [18],2 μg/disk
same,zone of inhibition at 2 µg/disc,"[11]; Staphylococcus aureus, ATCC25923, at 2 μg/disk",10 mm
same,MIC50,[12],1.3 ± 0.4 µg/mL
same,Agar disk diffusion (μg/disk) MRSA,[13]; [18],2 μg/disk
same,zone of inhibition at 2 µg/disc,"[13]; Staphylococcus aureus, at 2 μg/disk",10 mm
same,"concentration without growth inhibition, P388",[14],> 50 µg/mL
same,"concentration without growth inhibition, HCT-116",[15],> 50 µg/mL
same,IC50,"[16]; IC50, inhibition of GTPase activity of FtsZ (molar), value in brackets",9.9 µM
same,IC50,"[16]; IC50, inhibition of GTPase activity of FtsZ",9.88 µM
same,selectivity for FtsZ over tubulin,[17],≥ 15 fold
same,effect on tubulin polymerization,[17]; listed as chrysophaentin 1,no effect; also recorded: does not affect
same,effect on tubulin polymerization,[17]; listed as compound 1,no effect
same,tubulin polymerization velocity v,"[17]; chrysophaentin 1 at 150 μM, paclitaxel, nocodazole at standardized concentrations",49 min⁻¹
